Results taken from US9969696B2, “Compounds as inhibitor of DNA double-strand break repair, methods and applications thereof” (INDIAN INSTITUTE OF SCIENCE, priority 2012, dated 2018).

Experiments:
[1] = Solubility (characterisation data)
DNA end joining (NHEJ) = experiment: NHEJ assay, cell-free extracts prepared from rat testes; type: biochemical; conditions: cell-free repair system from rat testes; compatible, noncompatible, blunt ends
Experimental: ATP end-labeled oligomeric DNA substrate (75 bp) containing 4 nt overhangs at 5′ ends (about 2 h at 25° C.). In the case of vehicle control, DMSO is used. […] The reaction products are purified and resolved on about 8% denaturing polyacrylamide gel.
FIG. 2 depicts the NHEJ assay and study of joining efficiency. A. Schematic representation of NHEJ assay and substrates containing DSBs. B. Comparison of the effect of potential Ligase IV inhibitors on DNA end joining. The joined products are indicated. “M” represents [g-32 ? P] ATP end-labeled 50 by ladder. C. Quantification of the joining efficiency. […] “PSLU” is “photostimulated luminescence unit”. […] Products are resolved on 1% agarose gel and visualized. Ethidium bromide is used as a positive control for the intercalation assay.
The reaction products are resolved on 8% denaturing PAGE. “M” represents [γ-^32P]ATP end-labeled 50 by ladder. […] “M” is a 2 log DNA ladder.
A. Western blotting showing presence of Ligase IV/XRCC4 in eluted fractions. W is wash, 1 and 2 are different fractions. […] Concentrations of inhibitors used are indicated. For other details, FIG. 4 legend can be referred. C. […] Radiolabeled oligomeric DNA substrates containing 5′ compatible termini are then added to the reaction along with increasing concentrations of purified Ligase IV/XRCC4 complex (30, 60 and 120 fmol) and products are resolved on a PAGE. F. Bar diagram representing quantification of the complementation experiment performed on 5′-5′ and 5′-3′ noncomplementary ends. In all panels quantification of EJ based on 3 independent experiments is represented as mean±SEM.

Row | Structure (SMILES) | Solubility in dimethyl formamide (DMF), dimethyl sulfoxide (DMSO) [1] | Solubility in chloroform (CHCl3) [1] | Solubility in ethanol [1] | melting point | Inhibition of end joining (EJ) of various types of DSBs (DNA end joining (NHEJ))
1 | Nc1nc(S)nc(O)c1/N=C/c1ccc(Cl)cc1 [Compound 2, (E)-5-(4-chlorobenzylideneamino)-6-amino-2-mercaptopyrimidin-4-ol] | soluble | Insoluble | Partially soluble | > 300 °C | 
2 | Nc1nc(S)nc(O)c1/N=C/c1ccc([N+](=O)[O-])cc1 [Compound 3, (E)-5-(4-nitrobenzylideneamino)-6-amino-2-mercaptopyrimidin-4-ol] | soluble | Insoluble | Partially soluble | > 320 °C | 
3 | Nc1nc(S)nc(O)c1/N=C/c1ccc(O)cc1 [Compound 4, (E)-5-(4-hydroxybenzylideneamino)-6-amino-2-mercaptopyrimidin-4-ol] | soluble | Insoluble | Partially soluble | > 320 °C | 
4 | COc1cc(/C=N/c2c(N)nc(S)nc2O)cc(OC)c1OC [Compound 5, (E)-5-(3,4,5-trimethoxybenzylideneamino)-6-amino-2-mercaptopyrimidin-4-ol] | soluble | Insoluble | Partially soluble | 315 °C | 
5 | Oc1nc(S)nc(/N=C/c2ccc(Cl)cc2)c1/N=C/c1ccc(Cl)cc1 [Compound 6, (5E,6E)-5,6-bis(4-chlorobenzylideneamino)-2-mercaptopyrimidin-4-ol] | soluble | Insoluble | Partially soluble | 260 to 262 °C | 
6 | Cc1ccc(/C=N/c2nc(S)nc(O)c2/N=C/c2ccc(C)cc2)cc1 [Compound 7, (5E,6E)-5,6-bis(4-methylbenzylideneamino)-2-mercaptopyrimidin-4-ol] | soluble | Insoluble | Partially soluble | 181 to 183 °C | 
7 | Oc1nc(S)nc2nc3[nH]c4ccccc4c3nc12 [Compound 8, 2-mercapto-10H-indolo[3,2-g]pteridin-4-ol] | soluble | Insoluble | Partially soluble | > 320 °C | 
8 | O=[N+]([O-])c1ccc(/C=N/c2nc(S)nc(O)c2/N=C/c2ccc([N+](=O)[O-])cc2)cc1 [Compound 9, (5E,6E)-5,6-bis(4-nitrobenzylideneamino)-2-mercaptopyrimidin-4-ol] | soluble | Insoluble | Partially soluble |  | 
9 | COc1ccc(/C=N/c2nc(S)nc(O)c2/N=C/c2ccc(OC)cc2)cc1 [Compound 10, (5E,6E)-5,6-bis(4-methoxybenzylideneamino)-2-mercaptopyrimidin-4-ol] | soluble | Insoluble | Partially soluble |  | 
10 | COc1cc(/C=N/c2nc(S)nc(O)c2/N=C/c2cc(OC)c(OC)c(OC)c2)cc(OC)c1OC [Compound 11, (5E,6E)-5,6-bis(3,4,5-trimethoxybenzylideneamino)-2-mercaptopyrimidin-4-ol] | soluble | Insoluble | Partially soluble |  | 
11 | Oc1ccc(/C=N/c2nc(S)nc(O)c2/N=C/c2ccc(O)cc2)cc1 [Compound 12, (5E,6E)-5,6-bis(4-hydroxybenzylideneamino)-2-mercaptopyrimidin-4-ol] | soluble | Insoluble | Partially soluble |  | 
12 | Cc1ccc(/C=N/c2c(N)nc(S)nc2O)cc1 [Compound 13, (E)-5-(4-methylbenzylideneamino)-6-amino-2-mercaptopyrimidin-4-ol] | soluble | Insoluble | Partially soluble |  | 
13 | COc1ccc(/C=N/c2c(N)nc(S)nc2O)cc1 [Compound 14, (E)-5-(4-methoxybenzylideneamino)-6-amino-2-mercaptopyrimidin-4-ol] | soluble | Insoluble | Partially soluble |  | 
14 | [Na+].[O-]c1nc(S)nc(/N=C/c2ccccc2)c1/N=C/c1ccccc1 [Compound 15, Sodium 5,6-bis((E)-benzylideneamino)-2-mercaptopyrimidin-4-olate] |  |  |  |  | inhibits end joining (EJ) irrespective of type and configurations of DSB
